Source: PubChem BioAssay (NCI)
Values joined by “and” are separate entries in the source; they are usually repeats but may differ in a detail not shown here. Identical values can stand only once.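 96-well plates; 48 h exposure; 5 concentrations. Endpoints by linear interpolation between flanking doses. Not reached: highest tested concentration assigned. GI50: concentration for 50% inhibition of growth. TGI: total growth inhibition.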

Legend:
Experiment in all cases: growth of human tumour cells (NCI), 48 h
A498 renal = system: A498 renal
CAKI-1 renal = system: CAKI-1 renal
HCT-15 colon = system: HCT-15 colon
HOP-62 NSCLC = system: HOP-62 NSCLC
MALME-3M melanoma = system: MALME-3M melanoma
OVCAR-4 ovarian = system: OVCAR-4 ovarian
SF-268 CNS = system: SF-268 CNS
SF-539 CNS = system: SF-539 CNS
SK-MEL-2 melanoma = system: SK-MEL-2 melanoma
EKVX NSCLC = system: EKVX NSCLC

SMILES | GI50 (A498 renal) [µM] | TGI (A498 renal) [µM] | GI50 (CAKI-1 renal) [µM] | TGI (CAKI-1 renal) [µM] | GI50 (HCT-15 colon) [µM] | TGI (HCT-15 colon) [µM] | GI50 (HOP-62 NSCLC) [µM] | TGI (HOP-62 NSCLC) [µM] | GI50 (MALME-3M melanoma) [µM] | TGI (MALME-3M melanoma) | GI50 (OVCAR-4 ovarian) [µM] | TGI (OVCAR-4 ovarian) [µM] | GI50 (SF-268 CNS) [µM] | TGI (SF-268 CNS) [µM] | GI50 (SF-539 CNS) [µM] | TGI (SF-539 CNS) [µM] | GI50 (SK-MEL-2 melanoma) [µM] | TGI (SK-MEL-2 melanoma) | TGI (EKVX NSCLC) [µM]
COC1CC2C=C(C)/C=C/C=C/C(=O)NC(c3ccccc3)C/C=C/CCC(O)CC(=O)C2=C1O (stereo not given) | 0.166 | 0.654 | 0.314 | 1.01 | 0.274 | 1.29 | 0.275 | 1.53 | 0.214 | 1.19 µM | 0.294 | 1.08 | 0.365 | 1.51 | 0.28 | 0.912 | 0.223 | 0.6 µM | 
CO/C1=C\C(C)=C\C(C)C(O)C(C)C/C(C)=C/C=C/C(OC)C(C(C)C(O)C(C)C2(O)CC(O)C(C)C(C(C)C)O2)OC1=O (stereo not given) |  |  | 0.021 | 9.89 |  | 11.2 |  | 0.000847 | 0.0237 | 0.0914 µM and 0.0629 µM |  | 15.6 |  | 19.5 |  | 0.0827 |  | 0.0141 µM and 0.0178 µM | 4.93
CCCCNN |  | > 100 |  | > 100 |  | > 100 |  | > 100 |  | > 100 µM |  | > 100 |  |  |  |  |  | > 100 µM | > 100
Cc1c(C(=O)NCCO)[n+](=O)c2cc(Cl)ccc2n1[O-] |  | > 100 |  |  |  | > 100 |  | > 100 |  | > 100 µM |  | > 100 |  | > 100 |  | > 100 |  |  | > 100
Cc1ccc(S(=O)(=O)NC(=O)NC23CC4CC(CC(F)(C4)C2)C3)cc1 |  | > 100 |  |  |  |  |  | > 100 |  | > 100 µM |  |  |  |  |  | > 100 |  | > 100 µM | > 100
CC(C)(C)NCc1cc(C(C)(C)C)cc(-c2ccc(Cl)cc2)c1O |  |  |  | 25.6 |  | 25.7 |  | 20.1 |  | 27.8 µM |  | 41.3 |  | 30.8 |  | 27.9 |  | 37.9 µM | 32.4
Cn1c(=O)c(Oc2ccccc2F)cc2cnc(NC3CCOCC3)nc21 | > 14.7 | > 25 | > 25 | > 25 | > 25 | > 25 | > 25 | > 25 | > 25 | > 25 µM | > 25 | > 25 | > 25 | > 25 | > 25 | > 25 | > 25 | > 25 µM | 
N=C(N=C(N)N)N1CCN(c2ccncc2)CC1 | 155 | > 1000 | > 1000 | > 1000 | > 1000 | > 1000 | > 1000 | > 1000 | > 1000 | > 1000 µM | > 1000 | > 1000 | > 1000 | > 1000 | > 1000 | > 1000 | > 1000 | > 1000 µM | 
CCCCCC(=O)c1ccc2[nH]c3c(C)cc([N+](=O)[O-])c(C)c3c2c1 |  |  |  | > 100 |  | > 100 |  | > 100 |  | > 100 µM |  | > 100 |  | > 100 |  | > 100 |  | > 100 µM | > 100
